Source: paper PMC9788418, “Design, Synthesis and Biological Evaluation of Syn and Anti-like Double Warhead Quinolinones Bearing Dihydroxy Naphthalene Moiety as Epidermal Growth Factor Receptor Inhibitors with Potential Apoptotic Antiproliferative Action” (Molecules, 2022)

How the values were obtained:
Format in all cases: cell-based, human
[1] = Cell viability assay (MTT) on normal cell line; settings: human, MCF-10A mammary gland epithelial cells, four days
Method: A cell viability test was performed using MCF-10A (human mammary gland epithelial) cell line to investigate the effect of 4a–e and 7a–e on normal cell lines. In this investigation, a concentration of 50 µM of the studied compound is employed for four days, after which cell viability is assessed.
(§1) 4.2. Biological evaluation
4.2.1. Cytotoxic activity using MTT Assay and evaluation of IC50
MTT assay was carried out to study the effect of compounds on mammary epithelial cells (MCF-10A). The medium in which cells were propagated contained Dulbecco's modified Eagle's medium (DMEM)/ Ham's F-12 medium (1:1) supplemented with epidermal growth factor (20 ng/mL), hydrocortisone (500 ng/mL), insulin (10 μg/mL), 2 mM glutamine and 10% foetal calf serum. After every 2-3 days, the cells were passaged using trypsin ethylenediamine tetra acetic acid (EDTA). The cells were seeded at a density of 10^4 cells mL-1 in flat-bottomed culture plates containing 96 wells each. After 24 h, medium was removed from the plates and the compounds in (in 0.1% DMSO) were added (in 200 μL medium to yield a final concentration of 0.1% v/v) to the wells of plates. A single compound was designated with four wells followed by incubation of plates for 96h at 37°C. After incubation, medium was removed completely from the plates followed by addition of MTT (0.4 mg/mL in medium) to each well and subsequent incubation of plates for 3h. MTT (along with the medium) was removed and DMSO (150μL) was added to each well of the culture plates, followed by vortexing and subsequent measurement of absorbance (at 540 nm) using microplate reader. […]

[2] = test system: Panc-1 (pancreas cancer cell line); assay: Antiproliferative assay; settings: Homo sapiens, PANC-1; read-out: Antiproliferative Activity IC50 ± SEM, Panc-1
Method: as §1
4.2.1. Cytotoxic activity using MTT Assay and evaluation of IC50 […]
cells were seeded at a density of 10^4 cells mL-1 in flat-bottomed culture plates containing 96 wells each. After 24 h, medium was removed from the plates and the compounds in (in 0.1% DMSO) were added (in 200 μL medium to yield a final concentration of 0.1% v/v) to the wells of plates. A single […]
incubation, medium was removed completely from the plates followed by addition of MTT (0.4 mg/mL in medium) to each well and subsequent incubation of plates for 3h. MTT (along with the medium) was removed and DMSO (150μL) was added to each well of the culture plates, followed by vortexing and subsequent measurement of absorbance (at 540 nm) using microplate reader. The data […]
(§2) 4.2.1.2. Assay for antiproliferative effect
(§3) To explore the antiproliferative potential of compounds MTT assay was performed according to previously reported procedure using different cell lines to explore the antiproliferative potential of compounds propidium iodide fluorescence assay was performed using different cell lines. To calculate the total nuclear DNA, a fluorescent dye (propidium iodide, PI) is used which can attach to the DNA, thus offering a quick and precise technique. PI cannot pass through the cell membrane and its signal intensity can be considered as directly proportional to quantity of cellular DNA. Cells whose cell membranes are damaged or have changed permeability are counted as dead ones. The assay was performed by seeding the cells of different cell lines at a density of 3000-7500 cells/well (in 200µl […]
(§4) atmospheric conditions. The medium was removed; the compounds were added to the plates at 10 µM concentrations (in 0.1% DMSO) in triplicates, followed by incubation for 48 h. DMSO (0.1%) was used as control. After incubation, medium was removed followed by the addition of PI (25 µl, 50µg/mL in water/medium) to each well of the plates. At -80 °C, the plates were allowed to freeze for 24 h, followed by thawing at 25 °C. A fluorometer (Polar-Star BMG Tech) was used to record the readings at excitation and emission wavelengths of 530 and 620 nm for each well. The percentage cytotoxicity of compounds was calculated using the following formula:
(§5) Where ATC= Absorbance of treated cells and AC= Absorbance of control. […]
(§6) positive control in the assay.

[3] = test system: A-549 (epithelial cancer cell line); assay: Antiproliferative assay; settings: Homo sapiens, A549; read-out: Antiproliferative Activity IC50 ± SEM, A-549
Method: as §2, §3, §4, §5, §6

[4] = test system: HT-29 (colon cancer cell line); assay: Antiproliferative assay; settings: Homo sapiens, read-out: Antiproliferative Activity IC50 ± SEM, HT-29
Method: as §2, §3, §4, §5, §6

[5] = test system: MCF-7 (breast cancer cell line); assay: Antiproliferative assay; settings: Homo sapiens, MCF7; read-out: Antiproliferative Activity IC50 ± SEM, MCF-7
Method: as §2, §3, §4, §5, §6

[6] = test system: four tested cancer cell lines (A-549, MCF-7, Panc-1, HT-29); assay: Antiproliferative assay, average over the four cell lines; settings: for GI50: Homo sapiens, mean of the four cancer cell lines; for fold less potent than 4a (GI50): relative to 4a
Method: The newly synthesized compounds were tested for antiproliferative activity against four different types of cancer cells: A-549 (epithelial cancer cell line), MCF-7 (breast cancer cell line), Panc-1 (pancreas cancer cell line), and HT-29 (colon cancer cell line).
After 24 h, medium was removed from the plates and the compounds in (in 0.1% DMSO) were added (in 200 μL medium to yield a final concentration of 0.1% v/v) to the wells of plates. A single compound was designated with four wells followed by incubation of plates for 96h at 37°C. After incubation, medium was removed completely from the plates followed by addition of MTT (0.4 mg/mL in medium) to each well and subsequent incubation of plates for 3h. MTT (along with the medium) was removed and DMSO (150μL) was added to each well of the culture plates, followed by vortexing and subsequent measurement of absorbance (at 540 nm) using microplate reader. The data are shown as percentage inhibition of proliferation in comparison with controls containing 0.1% 4.2.1.2. Assay for antiproliferative effect
To explore the antiproliferative potential of compounds MTT assay was performed according to previously reported procedure using different cell lines to explore the antiproliferative potential of compounds propidium iodide fluorescence assay was performed using different cell lines. To calculate the total nuclear DNA, a fluorescent dye (propidium iodide, PI) is used which can attach to the DNA, thus offering a quick and precise technique. PI cannot pass through the cell membrane and its signal intensity can be considered as directly proportional to quantity of cellular DNA. Cells whose cell membranes are damaged or have changed permeability are counted as dead ones. The assay was performed by seeding the cells of different cell lines at a density of 3000-7500 cells/well (in 200µl medium) in culture plates followed by incubation for 24h at 37 °C in humidified 5% CO2/95% air atmospheric conditions. The medium was removed; the compounds were added to the plates at 10 µM concentrations (in 0.1% DMSO) in triplicates, followed by incubation for 48 h. DMSO (0.1%) was used as control. After incubation, medium was removed followed by the addition of PI (25 µl, 50µg/mL in water/medium) to each well of the plates. At -80 °C, the plates were allowed to freeze for 24 h, followed by thawing at 25 °C. A fluorometer (Polar-Star BMG Tech) was used to record the readings at excitation and emission wavelengths of 530 and 620 nm for each well. The percentage cytotoxicity of compounds was calculated using the following formula:
Where ATC= Absorbance of treated cells and AC= Absorbance of control. Erlotinib was used as positive control in the assay.

Row | IC50 [2] | IC50 [3] | IC50 [4] | IC50 [5] | GI50 [6] | fold less potent than 4a (GI50) [6] | Compound | viability at 96 h, 50 µM [1]
1 | 0.135 ± 0.013 µM | 0.123 ± 0.012 µM | 0.137 ± 0.013 µM | 0.127 ± 0.012 µM | 0.13 µM | approximately 4 fold | Cn1c(=O)cc(-n2cc(COc3cccc4cccc(OCc5cn(-c6cc(=O)n(C)c7ccccc67)nn5)c34)nn2)c2ccccc21 [Compound 4e, 4,4′-(((naphthalene-1,8-diylbis(oxy))bis(methylene))bis(1H-1,2,3-triazole-4,1-diyl))-bis-(1-methylquinolin-2(1H)-one)] | 90%
2 | 0.067 ± 0.006 µM | 0.063 ± 0.006 µM | 0.067 ± 0.006 µM | 0.065 ± 0.006 µM | 0.065 µM | – | Cc1ccc2[nH]c(=O)cc(-n3cc(COc4cccc5c(OCc6cn(-c7cc(=O)[nH]c8ccc(C)cc78)nn6)cccc45)nn3)c2c1 [Compound 7b, 4,4′-(((naphthalene-1,5-diylbis(oxy))bis(methylene))bis(1H-1,2,3-triazole-4,1-diyl))-bis-(6-methylquinolin-2(1H)-one)] | 93%
3 | 0.136 ± 0.013 µM | 0.126 ± 0.013 µM | 0.143 ± 0.014 µM | 0.13 ± 0.013 µM | 0.134 µM | approximately 4 fold | Cn1c(=O)cc(-n2cc(COc3cccc4c(OCc5cn(-c6cc(=O)n(C)c7ccccc67)nn5)cccc34)nn2)c2ccccc21 [Compound 7e, 4,4′-(((naphthalene-1,5-diylbis(oxy))bis(methylene))bis(1H-1,2,3-triazole-4,1-diyl))-bis-(1-methylquinolin-2(1H)-one)] | 85%

Row | Compound | IC50 [2] | IC50 [3] | IC50 [4] | IC50 [5] | GI50 [6] | fold less potent than 4a (GI50) [6] | viability at 96 h, 50 µM [1]
4 | C#Cc1cccc(Nc2ncnc3cc(OCCOC)c(OCCOC)cc23)c1 [Erlotinib, reference compound] | – | – | – | – | 0.033 µM | – | –
